Reference: publication PMC12416277, “Phytochemical alkaloids orchestrate immunometabolism against viral infections” (National Science Review, 2025)

Key:
VSV [1] = assay type: cell-based, vesicular stomatitis virus (VSV)
NPC1/STING axis = assay: Ifit1 and Ifit2 mRNA in sgRNA-EV, sgRNA Npc1 and Flag-NPC1 cells stimulated with DMXAA and Tet; assay type: cell-based, mouse; conditions: sgRNA-EV vs NPC1-deficient vs Flag-NPC1 cells, DMXAA
Protocol: Figure 5. The dual functions of Tet to resist viral entry and activate antiviral immunity through the NPC1/STING axis. (a, b) Confocal analysis of Bio-Tet with CD63 (a) or NPC1 (b) in A549 cells, scale bar: 10 μm. (c) Binding affinity analysis of NPC1 with itraconazole, U18666A, or Tet was determined by SPR. (d, e) CETSA (d) and DARTS (e) analysis of NPC1 with Tet in HepG2 cells. (f) Streptavidin-covered beads with biotin, Bio-Tet, Bio-Tet + Tet were incubated with cell lysates. As indicated, the levels of NPC1 protein in bound proteins (IP) and total proteins (Input) were determined using immunoblotting. (g) Viral mRNA expression in siNPC1-transfected cells treated with Tet. (h) Viral mRNA expression in sgRNA-EV, sgRNA Npc1, and sgRNA Npc1 cells transfected with Flag-NPC1 treated with Tet. (i) Ifit1 and Ifit2 mRNA expression in sgRNA-EV, sgRNA Npc1, and sgRNA Npc1 cells transfected with Flag-NPC1 stimulated with DMXAA and Tet. (j) Schematic of LysoIP-DEG. (k) Immunoblotting analysis of the indicated proteins in LysoIP-DEG in Tet-treated HepG2 cells. (l) Schematic model of NPC1/STING axis-mediated viral inhibition by Tet. The schematic diagram (j) and model (l) were created by Figdraw. For a, b, g, h, i, n = 3 independent experiments. All data are presented as mean ± SD. P values were calculated using one-way ANOVA (g, h, i). NS, not significant. […]

VSV [2] = assay type: in vivo, C57/BL6J mice; conditions: mice

## COc1ccc2cc1Oc1ccc(cc1)C[C@H]1c3cc(c(OC)cc3CCN1C)Oc1c(OC)c(OC)cc3c1[C@H](C2)N(C)CC3 [Tet, tetrandrine]
VSV [1]
  antiviral effect against VSV: diminished
NPC1/STING axis
  Ifit1 and Ifit2 expression: observed in sgRNA-EV cells, but this effect was abolished in NPC1-deficient cells and restored in sgRNA-Npc1 cells transfected with Flag-NPC1
VSV [2]; VSV infection
  IL-6 level in serum: markedly decreased
  TNF-α level in serum: markedly decreased
  VSV-G protein expression in lungs and spleens: inhibited
  lung pathology (H&E): reduced lung pathology and cellular infiltrations
VSV [2]; intraperitoneal and intragastric, 10–60 mg/kg, 24 hours pre-VSV infection
  reduction of VSV genome copies in liver, lung, and spleen tissues: 0.5–1 log₁₀
